Experiments:
[1] = target: Beta-adrenergic receptor kinase 1 (Homo sapiens) (UniProt P25098)
[2] = target: Dual specificity mitogen-activated protein kinase kinase 6 (Homo sapiens) (UniProt P52564)
[3] = target: Cyclin-dependent kinase-like 5 (Homo sapiens) (UniProt O76039)
[4] = target: Tyrosine-protein kinase Fer (Homo sapiens) (UniProt P16591)
[5] = target: LIM domain kinase 1 (Homo sapiens) (UniProt P53667)
[6] = target: Sigma intracellular receptor 2 (Homo sapiens, UniProt Q5BJF2); assay: GPCRScan assay: inhibition of Sigma 2; design: radioligand conc. used [nm] 5.0, parental cells HEKT
[7] = target: Cyclin-dependent kinase 4 (Homo sapiens) (UniProt P11802)
[8] = target: Myosin light chain kinase family member 4 (Homo sapiens) (UniProt Q86YV6)
[9] = target: Serine/threonine-protein kinase ULK2 (Homo sapiens) (UniProt Q8IYT8)
[10] = target: Serine/threonine-protein kinase MAK (Homo sapiens) (UniProt P20794)
[11] = target: Ribosomal protein S6 kinase alpha-5 (Homo sapiens) (UniProt O75582)
[12] = target: D(1B) dopamine receptor (Homo sapiens) (UniProt P21918); details: Compound concentration 10.0 uM
[13] = test system: Phosphatidylinositol 4,5-bisphosphate 3-kinase catalytic subunit alpha isoform (Homo sapiens), P42336 [I800L]
[14] = target: Death-associated protein kinase 3 (Homo sapiens) (UniProt O43293)
[15] = target: Protein kinase C theta type (Homo sapiens) (UniProt Q04759)
[16] = target: Ribosomal protein S6 kinase alpha-5 (Homo sapiens) (UniProt O75582); remark: listed apart in the source
[17] = target: Phosphatidylinositol 4,5-bisphosphate 3-kinase catalytic subunit beta isoform (Homo sapiens) (UniProt P42338)
[18] = test system: Proto-oncogene tyrosine-protein kinase receptor Ret (Homo sapiens), P07949 [V804L]
[19] = target: Serine/threonine-protein kinase WNK4 (Homo sapiens) (UniProt Q96J92)
[20] = target: Eukaryotic translation initiation factor 2-alpha kinase 1 (Homo sapiens) (UniProt Q9BQI3)
[21] = target: Non-receptor tyrosine-protein kinase TYK2 (Homo sapiens) (UniProt P29597)
[22] = target: Serine/threonine-protein kinase Nek9 (Homo sapiens) (UniProt Q8TD19)
[23] = target: Serine/threonine-protein kinase 32C (Homo sapiens) (UniProt Q86UX6)
[24] = target: Wee1-like protein kinase (Homo sapiens) (UniProt P30291)
[25] = target: Cyclin-dependent kinase-like 2 (Homo sapiens) (UniProt Q92772)
[26] = test system: Mast/stem cell growth factor receptor Kit (Homo sapiens), P10721 [D816V]
[27] = target: Phosphatidylinositol 4-phosphate 5-kinase type-1 gamma (Homo sapiens) (UniProt O60331)
[28] = target: Macrophage-stimulating protein receptor (Homo sapiens) (UniProt Q04912)
[29] = target: TGF-beta receptor type-2 (Homo sapiens) (UniProt P37173)
[30] = target: Alpha-1D adrenergic receptor (Homo sapiens) (UniProt P25100); details: Compound concentration 10.0 uM
[31] = target: Ephrin type-B receptor 2 (Homo sapiens) (UniProt P29323)
[32] = target: Serine/threonine-protein kinase tousled-like 2 (Homo sapiens) (UniProt Q86UE8)
[33] = target: Tyrosine-protein kinase JAK1 (Homo sapiens) (UniProt P23458)
[34] = target: SNF-related serine/threonine-protein kinase (Homo sapiens) (UniProt Q9NRH2)
[35] = test system: Tyrosine-protein kinase ABL1 (Homo sapiens), P00519 [Y253F]
[36] = target: Serine/threonine-protein kinase mTOR (Homo sapiens) (UniProt P42345)
[37] = target: Serine/threonine-protein kinase Nek3 (Homo sapiens) (UniProt P51956)
[38] = target: Macrophage colony-stimulating factor 1 receptor (Homo sapiens) (UniProt P07333)
[39] = target: Fibroblast growth factor receptor 4 (Homo sapiens) (UniProt P22455)
[40] = test system: Epidermal growth factor receptor (Homo sapiens), P00533 [UNDEFINED MUTATION]
[41] = target: Serine/threonine-protein kinase Sgk1 (Homo sapiens) (UniProt O00141)
[42] = target: Receptor-interacting serine/threonine-protein kinase 2 (Homo sapiens) (UniProt O43353)
[43] = target: Activin receptor type-2A (Homo sapiens) (UniProt P27037)
[44] = target: Serine/threonine-protein kinase 16 (Homo sapiens) (UniProt O75716)
[45] = test system: Phosphatidylinositol 4,5-bisphosphate 3-kinase catalytic subunit alpha isoform (Homo sapiens), P42336 [H1047Y]
[46] = Compound concentration 1000.0 nM
[47] = Compound concentration 100.0 nM

Sigma intracellular receptor 2, sequence (Q5BJF2 whole entry): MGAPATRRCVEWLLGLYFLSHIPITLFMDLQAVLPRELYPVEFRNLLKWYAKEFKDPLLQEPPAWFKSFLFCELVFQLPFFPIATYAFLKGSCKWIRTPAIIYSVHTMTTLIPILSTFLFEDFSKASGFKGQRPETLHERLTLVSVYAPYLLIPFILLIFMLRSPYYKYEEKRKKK
Ribosomal protein S6 kinase alpha-5 (Homo sapiens), sequence (O75582 whole entry, looked up, canonical isoform): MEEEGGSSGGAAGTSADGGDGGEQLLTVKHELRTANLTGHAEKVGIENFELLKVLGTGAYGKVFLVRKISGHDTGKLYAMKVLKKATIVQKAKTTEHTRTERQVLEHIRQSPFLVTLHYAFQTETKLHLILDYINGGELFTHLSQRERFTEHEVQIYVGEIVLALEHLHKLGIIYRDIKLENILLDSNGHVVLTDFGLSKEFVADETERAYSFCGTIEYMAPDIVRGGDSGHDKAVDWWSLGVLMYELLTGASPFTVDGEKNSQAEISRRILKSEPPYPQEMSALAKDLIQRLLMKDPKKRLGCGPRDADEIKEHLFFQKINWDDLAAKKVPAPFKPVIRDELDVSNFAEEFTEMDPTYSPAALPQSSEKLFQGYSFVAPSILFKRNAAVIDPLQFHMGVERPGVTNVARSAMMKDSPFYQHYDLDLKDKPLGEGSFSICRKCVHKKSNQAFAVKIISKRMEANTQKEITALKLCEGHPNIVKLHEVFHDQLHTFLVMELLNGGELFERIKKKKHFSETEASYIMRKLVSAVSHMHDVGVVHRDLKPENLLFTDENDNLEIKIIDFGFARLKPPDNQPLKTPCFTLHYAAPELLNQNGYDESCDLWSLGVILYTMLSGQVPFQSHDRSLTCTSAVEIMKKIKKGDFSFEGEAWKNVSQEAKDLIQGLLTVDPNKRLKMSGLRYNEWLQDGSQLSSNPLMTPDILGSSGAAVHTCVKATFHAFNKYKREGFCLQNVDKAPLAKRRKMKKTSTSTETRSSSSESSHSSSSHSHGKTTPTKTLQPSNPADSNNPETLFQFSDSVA
Phosphatidylinositol 4,5-bisphosphate 3-kinase catalytic subunit alpha isoform (Homo sapiens), P42336 [I800L], sequence (P42336 whole entry I800L, canonical isoform): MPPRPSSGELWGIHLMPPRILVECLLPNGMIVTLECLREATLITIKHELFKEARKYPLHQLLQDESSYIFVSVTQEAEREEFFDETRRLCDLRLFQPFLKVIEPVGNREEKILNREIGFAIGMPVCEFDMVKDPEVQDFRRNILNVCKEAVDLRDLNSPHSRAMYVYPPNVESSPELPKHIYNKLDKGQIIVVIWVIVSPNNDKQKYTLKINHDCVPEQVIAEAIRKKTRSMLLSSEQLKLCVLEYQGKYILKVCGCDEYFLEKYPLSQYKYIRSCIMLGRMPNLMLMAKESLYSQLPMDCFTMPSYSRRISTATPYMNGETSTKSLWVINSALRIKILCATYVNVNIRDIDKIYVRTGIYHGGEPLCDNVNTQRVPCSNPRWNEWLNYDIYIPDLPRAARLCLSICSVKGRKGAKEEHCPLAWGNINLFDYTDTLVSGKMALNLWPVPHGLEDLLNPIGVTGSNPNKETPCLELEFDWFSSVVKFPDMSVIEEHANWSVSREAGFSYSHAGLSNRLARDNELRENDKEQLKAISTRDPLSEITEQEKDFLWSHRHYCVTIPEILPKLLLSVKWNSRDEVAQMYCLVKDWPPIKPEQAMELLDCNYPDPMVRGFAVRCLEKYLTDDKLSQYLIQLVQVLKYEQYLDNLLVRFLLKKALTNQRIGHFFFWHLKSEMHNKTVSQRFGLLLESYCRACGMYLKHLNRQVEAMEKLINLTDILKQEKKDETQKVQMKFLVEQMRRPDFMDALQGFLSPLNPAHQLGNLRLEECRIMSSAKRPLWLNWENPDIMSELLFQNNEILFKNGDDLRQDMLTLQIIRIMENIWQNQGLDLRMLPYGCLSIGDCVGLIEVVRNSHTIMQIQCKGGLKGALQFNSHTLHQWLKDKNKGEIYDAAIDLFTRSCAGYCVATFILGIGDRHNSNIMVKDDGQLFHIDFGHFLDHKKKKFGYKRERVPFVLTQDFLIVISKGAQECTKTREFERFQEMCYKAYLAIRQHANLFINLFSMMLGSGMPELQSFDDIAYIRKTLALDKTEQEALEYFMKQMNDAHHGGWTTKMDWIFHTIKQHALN
Tyrosine-protein kinase Fer (Homo sapiens), sequence (P16591 whole entry, looked up, the tested form may be a part): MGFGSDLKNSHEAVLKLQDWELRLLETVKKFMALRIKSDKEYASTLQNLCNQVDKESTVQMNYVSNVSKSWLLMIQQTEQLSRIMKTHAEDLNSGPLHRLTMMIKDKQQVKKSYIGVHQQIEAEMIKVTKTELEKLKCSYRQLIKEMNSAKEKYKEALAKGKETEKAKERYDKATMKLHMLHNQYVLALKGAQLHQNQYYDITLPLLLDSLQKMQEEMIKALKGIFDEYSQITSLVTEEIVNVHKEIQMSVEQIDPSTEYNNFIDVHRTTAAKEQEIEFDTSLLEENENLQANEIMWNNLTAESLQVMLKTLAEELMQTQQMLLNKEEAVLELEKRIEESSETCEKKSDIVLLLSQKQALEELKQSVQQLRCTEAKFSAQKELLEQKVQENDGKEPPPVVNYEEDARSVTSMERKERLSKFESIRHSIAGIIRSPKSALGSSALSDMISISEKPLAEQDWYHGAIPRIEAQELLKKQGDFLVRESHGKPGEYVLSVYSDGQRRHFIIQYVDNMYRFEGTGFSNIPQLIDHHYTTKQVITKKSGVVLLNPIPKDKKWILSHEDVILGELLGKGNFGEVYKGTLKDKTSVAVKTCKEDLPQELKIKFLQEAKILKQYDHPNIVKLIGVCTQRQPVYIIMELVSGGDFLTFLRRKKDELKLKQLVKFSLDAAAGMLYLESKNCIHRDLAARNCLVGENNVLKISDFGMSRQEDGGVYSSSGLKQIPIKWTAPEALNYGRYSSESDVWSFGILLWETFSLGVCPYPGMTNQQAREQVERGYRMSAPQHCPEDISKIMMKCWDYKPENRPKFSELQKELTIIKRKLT
Activin receptor type-2A (Homo sapiens), sequence (P27037 whole entry): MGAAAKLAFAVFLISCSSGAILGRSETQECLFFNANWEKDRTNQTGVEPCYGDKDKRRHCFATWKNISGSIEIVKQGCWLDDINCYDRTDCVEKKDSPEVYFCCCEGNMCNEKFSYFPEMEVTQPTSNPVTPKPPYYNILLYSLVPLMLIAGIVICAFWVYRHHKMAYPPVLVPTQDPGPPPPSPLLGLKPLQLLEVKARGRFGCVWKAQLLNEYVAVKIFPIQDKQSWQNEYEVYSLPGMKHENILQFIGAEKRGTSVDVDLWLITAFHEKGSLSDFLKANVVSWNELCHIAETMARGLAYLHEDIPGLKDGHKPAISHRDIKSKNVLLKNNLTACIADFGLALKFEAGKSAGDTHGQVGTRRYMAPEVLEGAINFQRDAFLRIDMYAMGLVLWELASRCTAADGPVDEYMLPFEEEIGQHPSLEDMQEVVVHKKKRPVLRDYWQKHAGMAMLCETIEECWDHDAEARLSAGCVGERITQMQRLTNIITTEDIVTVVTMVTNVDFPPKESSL
Mast/stem cell growth factor receptor Kit (Homo sapiens), P10721 [D816V], sequence (P10721 whole entry D816V): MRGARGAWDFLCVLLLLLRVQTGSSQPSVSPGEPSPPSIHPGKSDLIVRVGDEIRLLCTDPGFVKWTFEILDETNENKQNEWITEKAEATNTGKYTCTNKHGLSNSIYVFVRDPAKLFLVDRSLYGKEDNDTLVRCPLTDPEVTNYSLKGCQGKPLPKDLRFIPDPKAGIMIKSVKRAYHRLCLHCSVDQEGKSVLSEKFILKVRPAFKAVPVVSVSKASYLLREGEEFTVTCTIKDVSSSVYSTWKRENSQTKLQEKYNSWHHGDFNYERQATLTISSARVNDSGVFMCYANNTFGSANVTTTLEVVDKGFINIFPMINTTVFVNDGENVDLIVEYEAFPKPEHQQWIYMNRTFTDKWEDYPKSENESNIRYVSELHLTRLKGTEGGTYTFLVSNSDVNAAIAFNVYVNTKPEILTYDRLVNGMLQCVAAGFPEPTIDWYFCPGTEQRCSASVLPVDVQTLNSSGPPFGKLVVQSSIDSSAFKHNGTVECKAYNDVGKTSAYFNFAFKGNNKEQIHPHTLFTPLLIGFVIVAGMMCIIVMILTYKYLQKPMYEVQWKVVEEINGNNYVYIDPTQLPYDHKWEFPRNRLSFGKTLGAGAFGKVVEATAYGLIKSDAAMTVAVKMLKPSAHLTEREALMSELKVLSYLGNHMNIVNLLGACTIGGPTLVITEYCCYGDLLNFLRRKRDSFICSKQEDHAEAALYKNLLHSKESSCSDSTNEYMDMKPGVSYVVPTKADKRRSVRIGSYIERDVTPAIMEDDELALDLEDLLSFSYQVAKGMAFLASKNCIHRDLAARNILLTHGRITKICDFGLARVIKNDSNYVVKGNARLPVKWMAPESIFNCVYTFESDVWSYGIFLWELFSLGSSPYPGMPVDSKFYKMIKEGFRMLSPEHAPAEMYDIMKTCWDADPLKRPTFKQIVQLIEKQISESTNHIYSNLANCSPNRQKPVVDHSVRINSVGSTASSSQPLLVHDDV
LIM domain kinase 1 (Homo sapiens), sequence (P53667 whole entry, looked up, the tested form may be a part): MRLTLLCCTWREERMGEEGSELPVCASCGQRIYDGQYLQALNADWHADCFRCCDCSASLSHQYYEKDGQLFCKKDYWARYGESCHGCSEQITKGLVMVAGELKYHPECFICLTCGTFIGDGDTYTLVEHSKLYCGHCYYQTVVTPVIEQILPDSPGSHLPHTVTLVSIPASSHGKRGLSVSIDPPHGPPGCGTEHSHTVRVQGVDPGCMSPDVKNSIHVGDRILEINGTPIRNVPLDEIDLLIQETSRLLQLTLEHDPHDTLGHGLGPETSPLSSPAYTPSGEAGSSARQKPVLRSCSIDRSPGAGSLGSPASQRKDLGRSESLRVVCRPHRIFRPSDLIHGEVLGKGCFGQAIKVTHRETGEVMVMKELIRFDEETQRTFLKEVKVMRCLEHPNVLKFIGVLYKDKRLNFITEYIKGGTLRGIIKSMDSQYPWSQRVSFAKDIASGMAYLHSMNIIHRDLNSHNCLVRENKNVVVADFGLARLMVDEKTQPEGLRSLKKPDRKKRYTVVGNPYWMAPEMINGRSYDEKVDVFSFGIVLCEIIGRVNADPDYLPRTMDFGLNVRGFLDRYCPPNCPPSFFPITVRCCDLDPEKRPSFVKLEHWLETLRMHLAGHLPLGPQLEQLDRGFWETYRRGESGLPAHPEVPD

Work on `CN(C)c1ncnc(-c2ccc3nc(Nc4cc(CN5CCN(C(=O)CC(F)(F)F)CC5)ccn4)[nH]c3c2)c1Cl` [BAY-440] yielded a residual activity [1, 46] of 57%, a residual activity [2, 46] of 92% and a residual activity [3, 46] of 66%. For the same compound, the residual activity [4, 46] was 100%, the residual activity [5, 46] was 100% and the Ki ([6]; read-out: Ki) was 2190 nM. It also gave a residual activity [7, 46] of 83%, a residual activity [8, 46] of 100% and a residual activity [9, 46] of 64%. For the same compound, the residual activity [10, 46] was 100%, the residual activity [11, 46] was 85% and the inhibition [12] was -9.93%. For the same compound, the residual activity [13, 46] was 35%, the residual activity [14, 46] was 99% and the residual activity [15, 46] was 100%. It also gave a residual activity [16, 46] of 100%, a residual activity [17, 46] of 82% and a residual activity [18, 46] of 100%. The residual activity [19, 46] was 53%, the residual activity [20, 46] was 54% and the residual activity [21, 46] was 77%. For the same compound, the residual activity [22, 46] was 100%, the residual activity [23, 46] was 100% and the residual activity [24, 46] was 100%. It also gave a residual activity [25, 46] of 100%, a residual activity [26, 46] of 97% and a residual activity [27, 46] of 100%. The residual activity [28, 46] was 98%, the residual activity [29, 46] was 85% and the inhibition [30] was 20.8%. The residual activity [31, 46] was 100%, the residual activity [32, 46] was 100% and the residual activity [33, 46] was 93%. It also gave a residual activity [34, 46] of 100%, a residual activity [35, 46] of 37% and a residual activity [36, 46] of 100%. For the same compound, the residual activity [37, 46] was 69%, the residual activity [38, 46] was 50% and the residual activity [39, 46] was 92%. For the same compound, the residual activity [40, 46] was 88%, the residual activity [41, 46] was 37% and the residual activity [42, 46] was 37%. For the same compound, the residual activity [43, 46] was 90%, the residual activity [44, 46] was 100% and the residual activity [45, 46] was 74%.
In the case of `C[C@H](c1ccnc(Nc2nc3ccc(-c4cc(N(C)C)ncn4)cc3[nH]2)c1)N1CCN(C(=O)CC(F)(F)F)CC1` [BAY-985], the residual activity [1, 47] is reported as 100%, the residual activity [2, 47] is reported as 96% and the residual activity [3, 47] is reported as 100%. For the same compound, the residual activity [4, 47] was 100%, the residual activity [5, 47] was 100% and the Ki ([6]; read-out: Ki) was 1160 nM. For the same compound, the Ki ([6]; read-out: pKi (converted)) was 1120 nM, the residual activity [7, 47] was 100% and the residual activity [8, 47] was 100%. The residual activity [9, 47] was 100%, the residual activity [10, 47] was 100% and the residual activity [11, 47] was 61%. The inhibition [12] was 10.2%, the residual activity [13, 47] was 100% and the residual activity [14, 47] was 90%. It also gave a residual activity [15, 47] of 100%, a residual activity [16, 47] of 88% and a residual activity [17, 47] of 100%. For the same compound, the residual activity [18, 47] was 83%, the residual activity [19, 47] was 80% and the residual activity [20, 47] was 100%. It also gave a residual activity [21, 47] of 100%, a residual activity [22, 47] of 100% and a residual activity [23, 47] of 100%. The residual activity [24, 47] was 96%, the residual activity [25, 47] was 100% and the residual activity [26, 47] was 96%. It also gave a residual activity [27, 47] of 89%, a residual activity [28, 47] of 80% and a residual activity [29, 47] of 98%. The inhibition [30] was 20.2%, the residual activity [31, 47] was 93% and the residual activity [32, 47] was 99%. The residual activity [33, 47] was 92%, the residual activity [34, 47] was 100% and the residual activity [35, 47] was 91%. The residual activity [36, 47] was 75%, the residual activity [37, 47] was 100% and the residual activity [38, 47] was 90%. For the same compound, the residual activity [39, 47] was 98%, the residual activity [40, 47] was 96% and the residual activity [41, 47] was 94%. The residual activity [42, 47] was 71%, the residual activity [43, 47] was 100% and the residual activity [44, 47] was 86%. The residual activity [45, 47] was 100%.

Reference: ChEMBL document CHEMBL4507318, “Data for DCP probe BAY-985” (2021)
